Assay results published in patent US20140107316A1, “DRUG DELIVERY CONJUGATES CONTAINING UNNATURAL AMINO ACIDS AND METHODS FOR USING” (priority 2012, published 2014).
Entries after “also recorded” stand apart in the source; their conditions may differ. Like-named read-outs stand apart in the source and are kept apart here.

Columns and labels:
[1] = tested on: folate receptor-positive KB cells; conditions: for In vitro specificity (fold): difference in IC50 between competed and non-competed group
Experimental: Inhibition of Cellular DNA Synthesis. The compounds described herein were evaluated using an in vitro cytotoxicity assay that predicts the ability of the drug to inhibit the growth of folate receptor-positive KB cells. The compounds were comprised of folate linked to a respective chemotherapeutic drug, as prepared according to the protocols described herein. The KB cells were exposed for up to 7 h at 37° C. to the indicated concentrations of folate-drug conjugate in the absence or presence of at least a 100-fold excess of folic acid. The cells were then rinsed once with fresh culture medium and incubated in fresh culture medium for 72 hours at 37° C. Cell viability was assessed using a ^3H-thymidine incorporation assay.
In vitro test against the various cancer cell lines. Cells are heavily seeded in 24-well Falcon plates and allowed to form nearly confluent monolayers overnight. Thirty minutes prior to the addition of the test compound, spent medium is aspirated from all wells and replaced with fresh folate-deficient RPMI medium (FFRPMI). A subset of wells are designated to receive media containing 100 μM folic acid. The cells in the designated wells are used to determine the targeting specificity. […] Following one rinse with 1 mL of fresh FFRPMI containing 10% heat-inactivated fetal calf serum, each well receives 1 mL of medium containing increasing concentrations of test compound (4 wells per sample) in the presence or absence of 100 μM free folic acid as indicated. Treated cells are pulsed for 2 h at 37° C., rinsed 4 times with 0.5 mL of media, and then chased in 1 mL of fresh medium up to 70 h. Spent medium is aspirated from all wells and replaced with fresh medium containing 5 μCi/mL ^3H-thymidine. Following a further 2 h 37° C. incubation, cells are washed 3 times with 0.5 mL of PBS and then treated with 0.5 mL of ice-cold 5% trichloroacetic acid per well. After 15 min, the trichloroacetic acid is aspirated and the cell material solubilized by the addition of 0.5 mL of 0.25 N sodium hydroxide for 15 min. A 450 μL aliquot of each solubilized sample is transferred to a scintillation vial containing 3 mL of Ecolume scintillation cocktail and then counted in a liquid scintillation counter. Final tabulated results are expressed as the percentage of ^3H-thymidine incorporation relative to untreated controls.
Folate receptor expressing cells. […] EC1456 was evaluated from 0.1-100 nM.

KB tumors = experiment: KB tumor assay in nu/nu mice; conditions: for CR (%) / Cures (%) / PR (%) / Toxicity Avg. Weight Loss / Toxicity Deaths (%): TIW, 2 weeks
Experimental: Inhibition of Tumor Growth in Mice. Four to seven week-old mice (Balb/c or nu/nu strains) were purchased from Harlan Sprague Dawley, Inc. (Indianapolis, Ind.). Normal rodent chow contains a high concentration of folic acid (6 mg/kg chow); accordingly, mice used were maintained on the folate-free diet (Harlan diet #TD00434) for 1 week before tumor implantation to achieve serum folate concentrations close to the range of normal human serum. For tumor cell inoculation, 1×10^6 M109 cells (Balb/c strain) or 1×10^6 KB cells (nu/nu strain) in 100 μL were injected in the subcutis of the dorsal medial area. Tumors were measured in two perpendicular directions every 2-3 days using a caliper, and their volumes were calculated as 0.5×L×W^2, where L=measurement of longest axis in mm and W=measurement of axis perpendicular to L in mm. […] Dosing solutions were prepared fresh each day in PBS and administered through the lateral tail vein of the mice.
General KB Tumor Assay. The anti-tumor activity of the compounds described herein, when administered intravenously (i.v.) to tumor-bearing animals, was evaluated in nu/nu mice bearing subcutaneous KB tumors. Approximately 8 days post tumor inoculation in the subcutis of the right axilla with 1×10^6 KB cells (average tumor volume at to=50-100 mm^3), in mice (5/group) were injected i.v. three times a week (TIW), for 3 weeks with […] of the drug delivery conjugate or with an equivalent dose volume of PBS (control), unless otherwise indicated. Tumor growth was measured using calipers at 2-day or 3-day intervals in each treatment group. Tumor volumes were calculated using the equation V=a×b^2/2, where “a” is the length of the tumor and “b” is the width expressed in millimeters.
Toxicity as Measured by Weight Loss. The percentage weight change of the mice was determined in mice (5 mice/group) on selected days post-tumor inoculation (PTI), and graphed.
In vivo activity against tumors.

[2] = Maximum tolerated dose (MTD); format: in vivo, female Sprague-Dawley rats; conditions: rat, in vivo, iv, BIW, 2 wks
Text: Maximum tolerated dose (MTD). […] For Example, EC1456 has a MTD of at least 0.51 μmol/kg and EC0531 has a MTD of 0.33 μmol/kg, […] when administered by i.v., BIW, 2 wks in female Sprague-Dawley rats. Histopathologic changes were not observed with doses of EC1456 at or below the MTD.

folate receptors (FRs) = molecular target: T1, folate receptors (FRs) (Homo sapiens, UniProt P15328); experiment: Relative affinity assay (3H-folic acid displacement on KB cells); format: binding; conditions: compared to folic acid (relative affinity=1), 10% serum/FDRPMI
T1 construct: FR-positive KB cells were heavily seeded into 24-well cell culture plates; endogenous in cells; host or cells: KB cells (human cervical carcinoma)
Experimental: Relative Affinity Assay. The affinity for folate receptors (FRs) relative to folate was determined according to a previously described method (Westerhof, G. R., J. H. Schornagel, et al. (1995) Mol. Pharm. 48: 459-471) with slight modification. Briefly, FR-positive KB cells were heavily seeded into 24-well cell culture plates and allowed to adhere to the plastic for 18 h. Spent incubation media was replaced in designated wells with folate-free RPMI (FFRPMI) supplemented with 100 nM ^3H-folic acid in the absence and presence of increasing concentrations of test article or folic acid. Cells were incubated for 60 min at 37° C. and then rinsed 3 times with PBS, pH 7.4. Five hundred microliters of 1% SDS in PBS, pH 7.4, were added per well. Cell lysates were then collected and added to individual vials containing 5 mL of scintillation cocktail, and then counted for radioactivity. Negative control tubes contained only the ^3H-folic acid in FFRPMI (no competitor). Positive control tubes contained a final concentration of 1 mM folic acid, and CPMs measured in these samples (representing non-specific binding of label) were subtracted from all samples.

cells in culture = experiment: Cytotoxicity to cells in culture; format: cell-based; conditions: read-out: typical IC50, cells in culture
KB-CR tumors = experiment: Cisplatin-resistant KB-CR tumor model; format: in vivo; conditions: 3 mg/kg, twice per week (T/Th), 2 weeks
[3] = read-out: 50% competition, competed group (excess folic acid)
[4] = 1.0 μmol/kg (2 doses), only 2 doses due to toxicity

T1 sequence (P15328 25-234): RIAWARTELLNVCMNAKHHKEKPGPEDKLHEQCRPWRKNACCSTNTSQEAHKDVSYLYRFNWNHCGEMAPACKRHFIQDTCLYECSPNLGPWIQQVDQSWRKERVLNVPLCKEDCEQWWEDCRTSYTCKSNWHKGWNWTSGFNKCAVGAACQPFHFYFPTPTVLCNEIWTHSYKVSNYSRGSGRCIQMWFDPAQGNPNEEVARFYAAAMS

SMILES | In vitro specificity (fold) [1] [fold] | IC50 [1, 3] [nM] | IC50 ([1]; read-out: In vitro IC50) [nM] | In vivo activity (KB tumors) | Relative Affinity (folate receptors (FRs)) | other results
N=c1[nH]c(N)nc2ncc(CNc3ccc(C(=O)N[C@@H](CCC(=O)NNC(=O)OCCSSC[C@H](NC(=O)[C@H](CCC(=O)NC[C@H](O)[C@@H](O)[C@H](O)[C@H](O)CO)NC(=O)[C@H](CCC(=O)O)NC(=O)[C@H](CCC(=O)NC[C@H](O)[C@@H](O)[C@H](O)[C@H](O)CO)NC(=O)[C@H](CCC(=O)O)NC(=O)[C@H](CCC(=O)NC[C@H](O)[C@@H](O)[C@H](O)[C@H](O)CO)NC(=O)CC[C@H](NC(=O)c4ccc(NCc5cnc6nc(N)[nH]c(=O)c6n5)cc4)C(=O)O)C(=O)O)C(=O)O)cc3)nc12 [EC0531, reference compound] | 237 | 355 | 1.5 | Complete |  | MTD at 2 weeks [2]: 0.33 µmol/kg
CCCC(=O)OCN(C(=O)[C@@H](NC(=O)[C@H]1CCCCN1C)C(C)CC)[C@H](C[C@@H](OC(C)=O)c1nc(C(=O)N[C@@H](Cc2ccc(O)cc2)C[C@H](C)C(=O)NNC(=O)OCCSSC[C@@H](NC(=O)[C@@H](CC(=O)O)NC(=O)[C@@H](CC(=O)O)NC(=O)[C@@H](CCCNC(=N)N)NC(=O)[C@@H](CC(=O)O)NC(=O)CC[C@@H](NC(=O)c2ccc(NCc3cnc4nc(N)[nH]c(=O)c4n3)cc2)C(=O)O)C(=O)O)cs1)C(C)C (some centres unmarked) [EC1299] | 778 | 700 | 0.9 | Complete | 0.29 | 
CCCC(=O)OCN(C(=O)[C@@H](NC(=O)[C@H]1CCCCN1C)C(C)CC)[C@H](C[C@@H](OC(C)=O)c1nc(C(=O)N[C@@H](Cc2ccc(O)cc2)C[C@H](C)C(=O)NNC(=O)OCCSSC(C)(C)[C@@H](NC(=O)[C@@H](CC(=O)O)NC(=O)[C@@H](CC(=O)O)NC(=O)[C@@H](CCCNC(=N)N)NC(=O)[C@@H](CC(=O)O)NC(=O)CC[C@@H](NC(=O)c2ccc(NCc3cnc4nc(N)[nH]c(=O)c4n3)cc2)C(=O)O)C(=O)O)cs1)C(C)C (some centres unmarked) [EC1393] | 300 | 600 | 2.2 |  | 0.25 | 
CCCC(=O)OCN(C(=O)[C@@H](NC(=O)[C@H]1CCCCN1C)C(C)CC)[C@H](C[C@@H](OC(C)=O)c1nc(C(=O)N[C@@H](Cc2ccc(O)cc2)C[C@H](C)C(=O)NNC(=O)OCCSSC[C@@H](NC(=O)[C@H](CC(=O)O)NC(=O)[C@H](CC(=O)O)NC(=O)[C@H](CCCNC(=N)N)NC(=O)[C@H](CC(=O)O)NC(=O)CC[C@H](NC(=O)c2ccc(NCc3cnc4nc(N)[nH]c(=O)c4n3)cc2)C(=O)O)C(=O)O)cs1)C(C)C (some centres unmarked) [EC1548] | 78 | 350 | 4.4 | Complete | 0.23 | 
CCCC(=O)OCN(C(=O)[C@@H](NC(=O)[C@H]1CCCCN1C)C(C)CC)C(C[C@@H](OC(C)=O)c1nc(C(=O)N[C@@H](Cc2ccc(O)cc2)C[C@H](C)C(=O)NNC(=O)OCCSSC[C@@H](NC(=O)[C@@H](CC(=O)O)NC(=O)[C@H](CC(=O)O)NC(=O)[C@H](CCCNC(=N)N)NC(=O)[C@H](CC(=O)O)NC(=O)CC[C@H](NC(=O)c2ccc(NCc3cnc4nc(N)[nH]c(=O)c4n3)cc2)C(=O)O)C(=O)O)cs1)C(C)C (some centres unmarked) [EC1549] | 78 | 350 | 4.5 | Complete | 0.90 | 
CCCCOCN(C(=O)[C@@H](NC(=O)[C@H]1CCCCN1C)C(C)CC)[C@H](C[C@@H](OC(C)=O)c1nc(C(=O)N[C@@H](Cc2ccc(O)cc2)C[C@H](C)C(=O)NNC(=O)OCCSSC[C@@H](NC(=O)[C@H](CCC(=O)NC[C@H](O)[C@@H](O)[C@H](O)[C@H](O)CO)NC(=O)[C@@H](CCC(=O)O)NC(=O)[C@H](CCC(=O)NC[C@H](O)[C@@H](O)[C@H](O)[C@H](O)CO)NC(=O)[C@@H](CCC(=O)O)NC(=O)[C@H](CCC(=O)NC[C@H](O)[C@@H](O)[C@H](O)[C@H](O)CO)NC(=O)CC[C@@H](NC(=O)c2ccc(NCc3cnc4nc(N)[nH]c(=O)c4n3)cc2)C(=O)O)C(=O)O)cs1)C(C)C (some centres unmarked) [EC1663] |  |  |  |  |  | whole animal toxicity (KB tumors; 0.5 μmol/kg TIW, 2 wk, compared to PBS control): did not exhibit significant host animal toxicity; also recorded: does not show any evidence of whole animal toxicity; partial responses (test animals) (KB tumors; intravenously 0.5 μmol/kg TIW, 2 wk): 4/4
CCCC(=O)OCN(C(=O)[C@@H](NC(=O)[C@H]1CCCCN1C)C(C)CC)[C@H](C[C@@H](OC(C)=O)c1nc(C(=O)N[C@@H](Cc2ccc(O)cc2)C[C@H](C)C(=O)NN)cs1)C(C)C (some centres unmarked) [TubBH, tubulysin B hydrazide] |  |  |  |  |  | CR (%) (KB tumors; 0.5 μmol/kg): 0%; Cures (%) (KB tumors; 0.5 μmol/kg): 0%; PR (%) (KB tumors; 0.5 μmol/kg): 0%; Toxicity Avg. Weight Loss (KB tumors; 0.5 μmol/kg): <5.5%; Toxicity Deaths (%) (KB tumors; 0.5 μmol/kg): 0%; CR (%) (KB tumors; 0.75 μmol/kg): 0%; Cures (%) (KB tumors; 0.75 μmol/kg): 0%; PR (%) (KB tumors; 0.75 μmol/kg): 0%; Toxicity Avg. Weight Loss (KB tumors; 0.75 μmol/kg): >10%; Toxicity Deaths (%) (KB tumors; 0.75 μmol/kg): 20%; CR (%) (KB tumors; [4]): 0%; Cures (%) (KB tumors; [4]): 0%; PR (%) (KB tumors; [4]): 0%; Toxicity Avg. Weight Loss (KB tumors; [4]): >15%; Toxicity Deaths (%) (KB tumors; [4]): 20%; toxicity in relation to anti-tumor effect in mice (KB tumors; mouse, in vivo): dose-limiting toxicities in mice at levels that did not produce measurable anti-tumor effect; IC50 (cells in culture): ~1 nM
N.N.[Cl][Pt][Cl] [cisplatin, reference compound] |  |  |  |  |  | partial responses (PRs) (KB-CR tumors): no PRs
